Results taken from patent US20080213172A1, “RADIOIMAGING MOIETIES COUPLED TO PEPTIDEASE-BINDING MOIETIES FOR IMAGING TISSUES AND ORGANS THAT EXPRESS PEPTIDASES” (Molecular Insight Pharmaceuticals, Inc., priority 2006, published 2008).

These compounds were tested against T1, purified rabbit lung ACE (Oryctolagus cuniculus, UniProt P12822) (assay: In vitro ACE activity colorimetric assay (Fujirebio ACE color kit)). Settings: Re-complexes; purified rabbit lung ACE.
T1 construct: The rabbit lung ACE (Sigma A6778) was reconstituted to a concentration of 1 unit/3 ml water; purchased Sigma A6778; host or cells: rabbit lung tissue
T1 sequence (P12822 34-1310): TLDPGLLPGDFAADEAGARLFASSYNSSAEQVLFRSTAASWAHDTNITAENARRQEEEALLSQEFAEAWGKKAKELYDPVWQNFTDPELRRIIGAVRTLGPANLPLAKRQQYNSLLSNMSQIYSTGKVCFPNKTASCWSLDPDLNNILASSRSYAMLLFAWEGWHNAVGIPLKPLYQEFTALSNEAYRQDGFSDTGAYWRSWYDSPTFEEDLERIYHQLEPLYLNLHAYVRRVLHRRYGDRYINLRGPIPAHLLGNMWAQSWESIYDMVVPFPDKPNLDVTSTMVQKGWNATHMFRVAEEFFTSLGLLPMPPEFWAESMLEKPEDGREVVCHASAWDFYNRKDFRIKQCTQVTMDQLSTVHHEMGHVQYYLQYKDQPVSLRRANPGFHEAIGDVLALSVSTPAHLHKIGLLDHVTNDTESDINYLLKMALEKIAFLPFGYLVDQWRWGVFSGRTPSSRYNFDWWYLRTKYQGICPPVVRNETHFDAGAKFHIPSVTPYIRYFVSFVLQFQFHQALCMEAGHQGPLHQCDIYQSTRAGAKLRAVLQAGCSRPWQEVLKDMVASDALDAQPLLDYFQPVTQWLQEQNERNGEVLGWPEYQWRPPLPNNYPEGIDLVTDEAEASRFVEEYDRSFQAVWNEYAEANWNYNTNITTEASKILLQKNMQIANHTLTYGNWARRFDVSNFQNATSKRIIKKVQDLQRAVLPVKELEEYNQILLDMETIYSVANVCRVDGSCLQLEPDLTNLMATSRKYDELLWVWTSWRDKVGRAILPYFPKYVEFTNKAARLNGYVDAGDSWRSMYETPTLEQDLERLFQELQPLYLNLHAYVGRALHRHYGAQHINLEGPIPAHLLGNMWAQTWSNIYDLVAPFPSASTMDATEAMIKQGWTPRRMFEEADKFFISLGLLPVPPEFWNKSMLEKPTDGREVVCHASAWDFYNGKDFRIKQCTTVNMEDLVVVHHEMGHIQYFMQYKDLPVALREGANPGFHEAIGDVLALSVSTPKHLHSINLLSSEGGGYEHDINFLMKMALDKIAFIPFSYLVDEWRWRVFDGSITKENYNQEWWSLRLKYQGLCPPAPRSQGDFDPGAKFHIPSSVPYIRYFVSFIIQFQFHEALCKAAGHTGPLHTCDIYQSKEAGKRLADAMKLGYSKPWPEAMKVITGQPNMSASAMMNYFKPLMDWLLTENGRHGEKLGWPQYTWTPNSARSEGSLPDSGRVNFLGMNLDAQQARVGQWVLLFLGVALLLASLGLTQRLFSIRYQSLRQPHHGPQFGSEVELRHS
Format: biochemical
Experimental: ACE inhibition was evaluated in vitro against rabbit lung ACE using a colorimetric assay.
A range of concentrations of each compound was examined for the ability to inhibit ACE cleavage of p-hydroxybenzoyl-glycine L-histidyl-L-leucine using a commercially available in vitro biochemical assay according to manufacturer's specifications (Fujirebio). The source of ACE enzyme chosen for the analysis was purified rabbit lung ACE (Sigrna) at 3.3 mU/sample. Lisinopril was included in each experiment as a positive control.
Angiotensin converting enzyme (ACE) activity was determined using the ACE color kit (Fujirebio) according to the manufacturers instructions. ACE acts upon p-hydroxybenzoyl-glycyl-L-histidyl-L-leucine to produce p-hydroxybenzoyl-glycine, which is converted to p-hydroxybenzoic acid by hippuricase. Quinoneimine dye is produced by oxidation and condensation of the p-hydroxybenzoic acid and 4-aminoantipyrine using sodium metaperiodate. The concentration of quinoneimine dye is quantitatively measured at its absorbance maximum of 505 nm. This assay was designed to compare the tissue and plasma specificity of rhenium-labeled ACE inhibitors in an ACE colorimetric assay.
Preparation of reagents: The ACE color kit was purchased from Fujirebio and the assay was conducted according to the manufacturer's instructions: reconstitute substrate with 5.6 ml of buffer solution, reconstitute blank with 5.6 ml of buffer solution for blank, reconstitute developer with 15.5 ml of stopper solution. The rabbit lung ACE (Sigma A6778) was reconstituted to a concentration of 1 unit/3 ml water.
Substrate or blank solution (125 μL) was then added and incubated at 37° C. for 20 min. The developer solution was added and incubated 37° C. for 3 min. The activity of the test compounds was determined by measuring the absorbance at 505 nm on a spectrophotometer. The optimal amount of serum ACE (25 μL) and tissue ACE (3.3 mUnits) was used to determine the specificity of the rhenium-labled ACE inhibitors. Test compounds, including lisinopril and captopril, were prepared (50 μM stock) and serially diluted 10-fold for final concentrations ranging from 1 μM to 0.1 nM (10 μL/assay tube). The assay was conducted as described above.
In vitro ACE activity assay. The ability of test compounds to inhibit ACE activity was determined using the ACEcolor kit from Fujirebio, Inc. according to the manufacturer's instructions. Purified rabbit lung ACE. (3.3 mUnits, Sigrna Chemicals) was incubated for 20 min with the test compound at concentrations of 1 μM to 0.1 nM in a solution of substrate at 37° C. Developer solution was added and the samples were incubated for an additional 5 minutes at 37° C. before reading at 505 nm in a spectrophotometer.

Row | Structure (SMILES) | IC50 [nM]
1 | NCCCC[C@H](N[C@@H](CCc1ccccc1)C(=O)O)C(=O)N1CCC[C@H]1C(=O)O [Lisinopril, reference compound] | 4

Same assay, conditions: free D(Cx)L ligands; rabbit lung ACE 3.3 mU/sample

Row | IC50 [nM] | Structure (SMILES)
2 | 19.5 | O=C(CCCCCCCN(Cc1ccccn1)Cc1ccccn1)NCCCCC(NC(CCc1ccccc1)C(=O)O)C(=O)N1CCCC1C(=O)O (stereo not drawn) [D(C8)L]
3 | 42.5 | O=C(CCCCCN(Cc1ccccn1)Cc1ccccn1)NCCCCC(NC(CCc1ccccc1)C(=O)O)C(=O)N1CCCC1C(=O)O (stereo not drawn) [D(C6)L]

More lines, now with the values behind:

Row | Structure (SMILES) | IC50 [nM]
4 | O=C(CCCCN(Cc1ccccn1)Cc1ccccn1)NCCCCC(NC(CCc1ccccc1)C(=O)O)C(=O)N1CCCC1C(=O)O (stereo not drawn) [D(C5)L] | 42.8
5 | O=C(CCCN(Cc1ccccn1)Cc1ccccn1)NCCCCC(NC(CCc1ccccc1)C(=O)O)C(=O)N1CCCC1C(=O)O (stereo not drawn) [D(C4)L] | 83.3
6 | NCCCC[C@H](N[C@@H](CCc1ccccc1)C(=O)O)C(=O)N1CCC[C@H]1C(=O)O [Lisinopril, reference compound] | 2.5
